# Target: T1, wild-type human ALK cytoplasmic domain (amino acids 1058-1620) (Homo sapiens, UniProt Q9UM73)
# T1 construct: The cytoplasmic domain (amino acids 1058-1620) of wild-type human ALK; GST (N); made in house; host or cells: SF9 insect cells
# Assay: ALK Inhibition in Enzyme Assay (Lance TR-FRET)
# Assay type: biochemical
# Conditions: not given
# Method: ALK Inhibition in Enzyme Assay
# Kinase activity of the purified protein was assessed using a Lance® TR-FRET assay. […] The reaction was allowed to proceed for 90 minutes at room temperature and was then terminated with 20 mM EDTA in 50 mM Tris (pH 7.5), 100 mM NaCl, 0.05% BSA, and 0.1% Tween-20. Phosphorylation of the peptide substrate was detected using the Lance® detection reagents streptavidin-allophycocyanin (SA-APC) and Eu-W1024 anti-phosphotyrosine antibody (PT66) from Perkin Elmer Life Sciences (Waltham, Mass.). The plates were read on a RUBY star plate reader (BMG LABTECH, Cary, N.C.) with an excitation wavelength of 320 nm.
# T1 sequence (Q9UM73 1058-1620): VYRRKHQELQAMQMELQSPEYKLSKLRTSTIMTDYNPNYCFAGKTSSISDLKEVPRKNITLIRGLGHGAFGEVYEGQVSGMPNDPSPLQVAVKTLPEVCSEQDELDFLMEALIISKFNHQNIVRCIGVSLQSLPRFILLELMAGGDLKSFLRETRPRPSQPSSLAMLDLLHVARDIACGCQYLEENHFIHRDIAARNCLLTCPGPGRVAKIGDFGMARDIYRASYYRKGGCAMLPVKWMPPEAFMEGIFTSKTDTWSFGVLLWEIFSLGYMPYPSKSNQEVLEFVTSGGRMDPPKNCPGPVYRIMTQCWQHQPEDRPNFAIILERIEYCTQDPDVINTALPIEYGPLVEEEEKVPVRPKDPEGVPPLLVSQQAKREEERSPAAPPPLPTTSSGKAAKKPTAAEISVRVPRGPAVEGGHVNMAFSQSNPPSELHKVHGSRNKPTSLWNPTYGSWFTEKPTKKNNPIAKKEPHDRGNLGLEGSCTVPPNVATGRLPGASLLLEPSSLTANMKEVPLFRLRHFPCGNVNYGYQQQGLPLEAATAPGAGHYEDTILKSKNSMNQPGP
row,IC50 [nM],Structure (SMILES)
1,1000 to 5000,"COc1cc(Nc2nccc(N3CCC[C@H](C(=O)NCc4ccc([N+](=O)[O-])cc4)C3)n2)cc(OC)c1OC [Example 71, (S)-N-(4-nitrobenzyl)-1-(2-((3,4,5-trimethoxyphenyl)amino)-4-pyrimidinyl)-3-piperidinecarboxamide]"
2,< 50,"COc1cc(Nc2nccc(N3CCC[C@H](C(=O)NCc4cccc(N5CCOCC5)c4)C3)n2)cc(OC)c1OC [Example 85, (S)-N-(3-(4-morpholinyl)benzyl)-1-(2-((3,4,5-trimethoxyphenyl)amino)-4-pyrimidinyl)-3-piperidinecarboxamide]"

# Same assay, conditions: 2 nM enzyme, ATP at 40 μM (Km apparent), 90 minutes, mean of three replicates; read-out: ALK IC50
row,IC50 [nM],Structure (SMILES)
1,5000 to 10000,"COc1cc(Nc2nccc(N3CCC[C@H](C(=O)NCCc4cn5ccccc5n4)C3)n2)cc(OC)c1OC [Example 61, (S)-N-(2-imidazo[1,2-a]pyridin-2-ylethyl)-1-(2-((3,4,5-trimethoxyphenyl)amino)-4-pyrimidinyl)-3-piperidinecarboxamide]"
2,100 to 1000,"COc1cc(Nc2nccc(N3CCC[C@H](C(=O)NCCOc4ccccc4)C3)n2)cc(OC)c1OC [Example 62, (S)-N-(2-phenoxyethyl)-1-(2-((3,4,5-trimethoxyphenyl)amino)-4-pyrimidinyl)-3-piperidinecarboxamide]"
3,100 to 1000,"COc1cc(Nc2nccc(N3CCC[C@H](C(=O)NCc4ccc5ccsc5c4)C3)n2)cc(OC)c1OC [Example 64, (S)-N-(1-benzothiophen-6-ylmethyl)-1-(2-((3,4,5-trimethoxyphenyl)amino)-4-pyrimidinyl)-3-piperidinecarboxamide]"
4,100 to 1000,"COc1cc(Nc2nccc(N3CCC[C@H](C(=O)NCc4ccc(Cl)c(Cl)c4)C3)n2)cc(OC)c1OC [Example 65, (S)-N-(3,4-dichlorobenzyl)-1-(2-((3,4,5-trimethoxyphenyl)amino)-4-pyrimidinyl)-3-piperidinecarboxamide]"
5,1000 to 5000,"COc1ccc(CNC(=O)[C@H]2CCCN(c3ccnc(Nc4cc(OC)c(OC)c(OC)c4)n3)C2)cc1OC [Example 66, (S)-N-(3,4-dimethoxybenzyl)-1-(2-((3,4,5-trimethoxyphenyl)amino)-4-pyrimidinyl)-3-piperidinecarboxamide]"
6,100 to 1000,"COc1cc(Nc2nccc(N3CCC[C@H](C(=O)NCc4ccc(F)c(F)c4)C3)n2)cc(OC)c1OC [Example 67, (S)-N-(3,4-difluorobenzyl)-1-(2-((3,4,5-trimethoxyphenyl)amino)-4-pyrimidinyl)-3-piperidinecarboxamide]"
7,100 to 1000,"COc1cc(Nc2nccc(N3CCC[C@H](C(=O)NCc4ccc(F)c(Cl)c4)C3)n2)cc(OC)c1OC [Example 68, (S)-N-(3-chloro-4-fluorobenzyl)-1-(2-((3,4,5-trimethoxyphenyl)amino)-4-pyrimidinyl)-3-pipcridinecarboxamide]"
8,< 50,"COc1cc(Nc2nccc(N3CCC[C@H](C(=O)NCc4ccc(C(C)(C)C)cc4)C3)n2)cc(OC)c1OC [Example 70, (S)-N-(4-tert-butylbenzyl)-1-(2-((3,4,5-trimethoxyphenyl)amino)-4-pyrimidinyl)-3-piperidinecarboxamide]"
9,100 to 1000,"COc1cc(Nc2nccc(N3CCC[C@H](C(=O)NCc4ccc(Oc5ccc(F)cc5)cc4)C3)n2)cc(OC)c1OC [Example 72, (S)-N-(4-(4-fluorophenoxy)benzyl)-1-(2-((3,4,5-trimethoxyphenyl)amino)-4-pyrimidinyl)-3-piperidinecarboxamide]"
10,1000 to 5000,"COc1cc(Nc2nccc(N3CCC[C@H](C(=O)NCc4ccc5c(c4)CCCN5C)C3)n2)cc(OC)c1OC [Example 73, (S)-N-((1-methyl-1,2,3,4-tetrahydro-6-quinolinyl)methyl)-1-(2-((3,4,5-trimethoxyphenyl)amino)-4-pyrimidinyl)-3-piperidinecarboxamide]"
11,100 to 1000,"COc1cc(Nc2nccc(N3CCC[C@H](C(=O)NCc4ccc(C)c(Cl)c4)C3)n2)cc(OC)c1OC [Example 74, (S)-N-(3-chloro-4-methylbenzyl)-1-(2-((3,4,5-trimethoxyphenyl)amino)-4-pyrimidinyl)-3-piperidinecarboxamide]"
12,< 50,"COc1cc(Nc2nccc(N3CCC[C@H](C(=O)NCc4ccc(OC(F)F)cc4)C3)n2)cc(OC)c1OC [Example 75, (S)-N-(4-(difluoromethoxy)benzyl)-1-(2-((3,4,5-trimethoxyphenyl)amino)-4-pyrimidinyl)-3-piperidinecarboxamide]"
13,50 to 100,"COc1cc(Nc2nccc(N3CCC[C@H](C(=O)NCc4ccc5[nH]c(C)cc5c4)C3)n2)cc(OC)c1OC [Example 76, (S)-N-((2-methyl-1H-indol-5-yl)methyl)-1-(2-((3,4,5-trimethoxyphenyl)amino)-4-pyrimidinyl)-3-piperidinecarboxamide]"
14,1000 to 5000,"COc1cc(Nc2nccc(N3CCC[C@H](C(=O)NCc4ccc5c(c4)OCCO5)C3)n2)cc(OC)c1OC [Example 77, (S)-N-(2,3-dihydro-1,4-benzodioxin-6-ylmethyl)-1-(2-((3,4,5-trimethoxyphenyl)amino)-4-pyrimidinyl)-3-piperidinecarboxamide]"
15,1000 to 5000,"COc1cc(Nc2nccc(N3CCC[C@H](C(=O)NCc4ccc(N5CCOCC5)cc4)C3)n2)cc(OC)c1OC [Example 78, (S)-N-(4-(4-morpholinyl)benzyl)-1-(2-((3,4,5-trimethoxyphcnyl)amino)-4-pyrimidinyl)-3-piperidinecarboxamide]"
16,< 50,"COc1cc(Nc2nccc(N3CCC[C@H](C(=O)NCc4cccc(OC(F)F)c4)C3)n2)cc(OC)c1OC [Example 79, (S)-N-(3-(difluoromethoxy)benzyl)-1-(2-((3,4,5-trimethoxyphenyl)amino)-4-pyrimidinyl)-3-piperidinecarboxamide]"
17,5000 to 10000,"COc1cc(Nc2nccc(N3CCC[C@H](C(=O)NCc4cc(C)cc(C)c4)C3)n2)cc(OC)c1OC [Example 81, (S)-N-(3,5-dimethylbenzyl)-1-(2-((3,4,5-trimethoxyphenyl)amino)-4-pyrimidinyl)-3-piperidinecarboxamide]"
18,100 to 1000,"COc1cc(Nc2nccc(N3CCC[C@H](C(=O)NCc4ccc(C)c(C)c4)C3)n2)cc(OC)c1OC [Example 83, (S)-N-(3,4-dimethylbenzyl)-1-(2-((3,4,5-trimethoxyphenyl)amino)-4-pyrimidinyl)-3-piperidinecarboxamide]"
19,1000 to 5000,"COc1cc(Nc2nccc(N3CCC[C@H](C(=O)NCc4cccc(NS(C)(=O)=O)c4)C3)n2)cc(OC)c1OC [Example 84, (S)-N-(3-((methylsulfonyl)amino)benzyl)-1-(2-((3,4,5-trimethoxyphenyl)amino)-4-pyrimidinyl)-3-piperidinecarboxamide]"
20,100 to 1000,"COc1cc(Nc2nccc(N3CCC[C@H](C(=O)NCc4ccc(C(F)(F)F)c(F)c4)C3)n2)cc(OC)c1OC [Example 86, (S)-N-(3-fluoro-4-(tritluoromethyl)benzyl)-1-(2-((3,4,5-trimethoxyphenyl)amino)-4-pyrimidinyl)-3-piperidinecarboxamide]"
21,100 to 1000,"COc1cc(Nc2nccc(N3CCC[C@H](C(=O)NCc4cccc(OC(C)C)c4)C3)n2)cc(OC)c1OC [Example 87, (S)-N-(3-(1-methylethoxy)benzyl)-1-(2-((3,4,5-trimethoxyphenyl)amino)-4-pyrimidinyl)-3-piperidinecarboxamide]"
22,50 to 100,"COc1cc(Nc2nccc(N3CCC[C@H](C(=O)NCc4ccc(OC(C)C)cc4)C3)n2)cc(OC)c1OC [Example 88, (S)-N-(4-(1-methylethoxy)benzyl)-1-(2-((3,4,5-trimethoxyphenyl)amino)-4-pyrimidinyl)-3-piperidinecarboxamide]"
23,50 to 100,"COc1cc(Nc2nccc(N3CCC[C@H](C(=O)NCCc4cccc(C)c4)C3)n2)cc(OC)c1OC [Example 89, (S)-N-(2-(3-methylphenyl)ethyl)-1-(2-((3,4,5-trimethoxyphenyl)amino)-4-pyrimidinyl)-3-piperidinecarboxamide]"
24,100 to 1000,"COc1cc(Nc2nccc(N3CCC[C@H](C(=O)NCCc4ccc(Oc5ccccc5)cc4)C3)n2)cc(OC)c1OC [Example 90, (S)-N-(2-(4-phenoxyphenyl)ethyl)-1-(2-((3,4,5-trimethoxyphenyl)amino)-4-pyrimidinyl)-3-piperidinecarboxamide]"
25,50 to 100,"COc1cc(Nc2nccc(N3CCC[C@H](C(=O)NCCc4ccc(C(F)(F)F)cc4)C3)n2)cc(OC)c1OC [Example 91, (S)-N-(2-(4-(trifluoromethyl)phenyl)ethyl)-1-(2-((3,4,5-trimethoxyphenyl)amino)-4-pyrimidinyl)-3-piperidinecarboxamide]"
26,100 to 1000,"COc1cc(Nc2nccc(N3CCC[C@H](C(=O)NCCc4ccc(C)cc4)C3)n2)cc(OC)c1OC [Example 92, (S)-N-(2-(4-methylphenyl)ethyl)-1-(2-((3,4,5-trimethoxyphenyl)amino)-4-pyrimidinyl)-3-piperidinecarboxamide]"
27,100 to 1000,"COc1ccc(CCNC(=O)[C@H]2CCCN(c3ccnc(Nc4cc(OC)c(OC)c(OC)c4)n3)C2)cc1 [Example 93, (S)-N-(2-(4-methoxyphenyl)ethyl)-1-(2-((3,4,5-trimethoxyphenyl)amino)-4-pyrimidinyl)-3-piperidinecarboxamide]"
28,< 50,"COc1cc(Nc2nccc(N3CCC[C@H](C(=O)NCCc4cccc(Br)c4)C3)n2)cc(OC)c1OC [Example 94, (S)-N-(2-(3-bromophenyl)ethyl)-1-(2-((3,4,5-trimethoxyphenyl)amino)-4-pyrimidinyl)-3-piperidinecarboxamide]"
29,100 to 1000,"COc1cc(Nc2nccc(N3CCC[C@H](C(=O)NCCc4cccc(F)c4)C3)n2)cc(OC)c1OC [Example 95, (S)-N-(2-(3-fluorophenyl)ethyl)-1-(2-((3,4,5-trimethoxyphenyl)amino)-4-pyrimidinyl)-3-piperidinecarboxamide]"

# — patent US8716281B2, “Pyrimidine compounds that inhibit anaplastic lymphoma kinase” (Amgen Inc., priority 2010, dated 2014)
